Source: patent publication US20210113501A1, “METHOD OF ADMINISTERING BETA-HYDROXY-BETA-METHYLBUTYRATE (HMB)” (Metabolic Technologies, Inc., priority 2009, published 2021)

Experiment: Study 2 hematology
Format: in vivo, human
Experimental: Study 2 design. Study 2 was conducted similar to study 1 with the following modifications. In study 2, plasma levels of HMB were measured for 1440 min (24 h) and total urine collection was also performed for measurement of urinary HMB excretion during this period. After the 180 min blood sample, the subjects were allowed to leave the laboratory and were instructed to return to the laboratory for additional blood samples at 360, 720, and 1440 min after the ingestion of the supplement. As in study 1, each subject took each of the treatments with at least a one week washout period between treatments. Samples were again stored frozen at −70° C. for analysis of plasma and urinary HMB concentrations. Pre-ingestion, 180 min and 1440 min blood samples were again assayed for the same measurements already for study 1. Subjects were provided with a standardized lunch after the 180 min blood sampling and instructed to eat this at approximately 240 min post ingestion. Following the 720 min blood sample, subjects were instructed to eat a normal evening meal before 10 pm. Subjects reported back to the laboratory the following morning for the fasted 1440 min blood sample. A urine collection container was provided and subjects collected all urine produced during the experimental 24 h experimental period. The urine was stored refrigerated when not being collected. Urine volumes were measured and samples of the total urine collection were taken and stored frozen at −70° C. until analyzed for HMB.
The data were analyzed using a crossover design with Proc GLM in SAS. (45) For the timed sampling of plasma HMB a repeated measures polynomial model was used. The model included subject, order, and treatment main effects and time by treatment interaction where appropriate. For other parameters Proc GLM was also used with subject, order, and treatment main effects and the p values are reported for the treatment main effect. Statistical significance was determined for p<0.05 and a trend was determined for 0.05<p<0.10.

CC(C)(O)CC(=O)[O-].CC(C)(O)CC(=O)[O-].[Ca+2] [CaHMB, calcium β-hydroxy-β-methylbutryate, reference compound]
Basophils (absolute) (After (24 h)): 0.06 ± 0.02 ×10^3/μL
Basophils, % (After (24 h)): 0.8 ± 0.2%
Eosinophils (absolute) (After (24 h)): 0.2 ± 0.03 ×10^3/μL
Eosinophils, % (After (24 h)): 2.6 ± 0.4%
Hematocrit (After (24 h)): 38.3 ± 1.7%
Hemoglobin (After (24 h)): 13.3 ± 0.6 g/dL
Lymphocytes (absolute) (After (24 h)): 2.8 ± 0.3 ×10^3/μL
Lymphocytes, % (After (24 h)): 42.5 ± 3.5%
MCH (After (24 h)): 30.7 ± 0.6 pg
MCHC (After (24 h)): 34.7 ± 0.2 g/dL
MCV (After (24 h)): 88.5 ± 1.4 fL
Monocytes (absolute) (After (24 h)): 0.5 ± 0.1 ×10^3/μL
Monocytes, % (After (24 h)): 8.5 ± 1.5%
Neutrophils (absolute) (After (24 h)): 3.0 ± 0.2 ×10^3/μL
Neutrophils, % (After (24 h)): 45.6 ± 3.3%
Platelets (After (24 h)): 235.9 ± 10.9 ×10^3/μL
RBC (After (24 h)): 4.3 ± 0.2 ×10^6/µL
RDW (After (24 h)): 13.4 ± 0.1%
WBC (After (24 h)): 6.5 ± 0.3 ×10^3/μL
Basophils (absolute) (Before): 0.06 ± 0.02 ×10^3/μL
Basophils, % (Before): 0.6 ± 0.2%
Eosinophils (absolute) (Before): 0.2 ± 0.04 ×10^3/μL
Eosinophils, % (Before): 2.9 ± 0.5%
Hematocrit (Before): 38.1 ± 1.8%
Hemoglobin (Before): 13.2 ± 0.7 g/dL
Lymphocytes (absolute) (Before): 3.3 ± 0.3 ×10^3/μL
Lymphocytes, % (Before): 44.8 ± 3.2%
MCH (Before): 30.6 ± 0.5 pg
MCHC (Before): 34.7 ± 0.2 g/dL
MCV (Before): 88.4 ± 1.5 fL
Monocytes (absolute) (Before): 0.5 ± 0.1 ×10^3/μL
Monocytes, % (Before): 6.9 ± 0.9%
Neutrophils (absolute) (Before): 3.3 ± 0.3 ×10^3/μL
Neutrophils, % (Before): 44.9 ± 3.8%
Platelets (Before): 228.0 ± 17.6 ×10^3/μL
RBC (Before): 4.3 ± 0.2 ×10^6/µL
RDW (Before): 13.4 ± 0.2%
Basophils (absolute) % Change (Before to After): 0.0%
Basophils, % - % Change (Before to After): 20.0%
Eosinophils (absolute) % Change (Before to After): −12.5%
Eosinophils, % - % Change (Before to After): −8.7%
Hematocrit % Change (Before to After): 0.7%
Hemoglobin % Change (Before to After): 0.7%
Lymphocytes (absolute) % Change (Before to After): −13.5%
Lymphocytes, % - % Change (Before to After): −5.0%
MCH % Change (Before to After): 0.2%
MCHC % Change (Before to After): 0.0%
MCV % Change (Before to After): 0.1%
Monocytes (absolute) % Change (Before to After): 5.0%
Monocytes, % - % Change (Before to After): 23.6%
Neutrophils (absolute) % Change (Before to After): −9.9%
Neutrophils, % - % Change (Before to After): 1.7%
Platelets % Change (Before to After): 3.5%
RBC % Change (Before to After): 0.7%
RDW % Change (Before to After): −0.1%
WBC % Change (Before to After): −10.5%
